From US10294202B2, “Pyrrolidinones as herbicides” (FMC Corporation, priority 2013, dated 2019)

Legend:
field bindweed = assay: Test E preemergence herbicide test; format: in vivo, Convolvulus arvensis; design: key: 0 = no effect, 100 = complete control
Excerpt: (§1) Seeds of plant species selected from corn (Zea mays), soybean (Glycine max), velvetleaf (Abutilon theophrasti), lambsquarters (Chenopodium album), wild poinsettia (Euphorbia heterophylla), pigweed, palmer (palmer pigweed, Amaranthus palmeri), waterhemp (common waterhemp, Amaranthus rudis), surinam grass (Brachiaria decumbens), crabgrass, large (large crabgrass, Digitaria sanguinalis), crabgrass, Brazil (Brazilian crabgrass, Digitaria horizontalis), panicum, fall (fall panicum, Panicum dichotomiflorum), foxtail, giant (giant foxtail, Setaria faberii), foxtail, green (green foxtail, Setaria viridis), goosegrass (Eleusine indica), johnsongrass (Sorghum halepense), ragweed (common ragweed, Ambrosia elatior), barnyardgrass (Echinochloa crus-galli), sandbur (southern sandbur, Cenchrus echinatus), arrowleaf […] rhombifolia), ryegrass, Italian (Italian ryegrass, Lolium multiflorum), dayflower, VA (Virginia dayflower, Commelina virginica), field bindweed (Convolvulus arvensis), morningglory (Ipomoea coccinea), nightshade (eastern black nightshade, Solanum ptycanthum), kochia (Kochia scoparia), nutsedge, yellow (yellow nutsedge, Cyperus esculentus), cocklebur (common cocklebur, Xanthium strumarium), smartweed (ladysthumb smartweed, Polygonum Persicaria) and beggarticks (hairy beggarticks, Bidens pilosa), were planted into a silt loam soil and treated preemergence with test chemicals formulated in a non-phytotoxic solvent mixture which included a surfactant. Treated plants and controls were maintained in a greenhouse for 21 days, after which time all species were compared to controls and visually evaluated. Plant response ratings, summarized in Table E, are based on a scale of 0 to 100 where 0 is no effect and 100 is complete control. A dash (-) response means no test result.

foxtail, green = assay: Test E preemergence herbicide test; format: in vivo, Setaria viridis; design: key: 0 = no effect, 100 = complete control
Excerpt: as §1

bluegrass = assay: Test D pre-/postemergence herbicide test; format: in vivo, Poa annua; settings: for Plant response rating: Bluegrass, scale 0 to 100; for Plant response rating, Bluegrass: scale 0 to 100 (0 no effect, 100 complete control)
Procedure, shortened: (§2)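 Visual ratings from 0 (no effect) to 100 (complete control) were made against untreated controls 7 to 21 days after treatment. Application was both preemergence, on silt loam soil, and postemergence, to 1- to 4-leaf plants 2-18 cm tall; compounds were formulated in a non-phytotoxic surfactant-containing solvent.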

blackgrass = assay: Test D pre-/postemergence herbicide test; format: in vivo, Alopecurus myosuroides; settings: for Plant response rating: Blackgrass, scale 0 to 100; for Plant response rating, Blackgrass: scale 0 to 100 (0 no effect, 100 complete control)
Procedure, shortened: as §2

barley, spring = assay: Test D pre-/postemergence herbicide test; format: in vivo, Hordeum vulgare; settings: for Plant response rating: Barley, Spring, scale 0 to 100; for Plant response rating, Barley, Spring: scale 0 to 100 (0 no effect, 100 complete control)
Procedure, shortened: as §2

barley, winter = assay: Test D pre-/postemergence herbicide test; format: in vivo, Hordeum vulgare; settings: for Plant response rating: Barley, Winter, scale 0 to 100; for Plant response rating, Barley, Winter: scale 0 to 100 (0 no effect, 100 complete control)
Procedure, shortened: as §2

pigweed = assay: Test D pre-/postemergence herbicide test; format: in vivo, Amaranthus retroflexus; settings: for Plant response rating: Postemergence, Pigweed, scale 0 to 100; for Plant response rating, Pigweed: Preemergence, scale 0 to 100 (0 no effect, 100 complete control)
Procedure, shortened: as §2

wheat, spring = assay: Test D pre-/postemergence herbicide test; format: in vivo, Triticum aestivum; settings: for Plant response rating: Postemergence, Wheat, Spring, scale 0 to 100; for Plant response rating, Wheat, Spring: Preemergence, scale 0 to 100 (0 no effect, 100 complete control)
Procedure, shortened: as §2

wheat, winter = assay: Test D pre-/postemergence herbicide test; format: in vivo, Triticum aestivum; settings: for Plant response rating: Postemergence, Wheat, Winter, scale 0 to 100; for Plant response rating, Wheat, Winter: Preemergence, scale 0 to 100 (0 no effect, 100 complete control)
Procedure, shortened: as §2

O=C1NCC(c2ccc(Cl)c(Cl)c2)C1C(=O)Nc1ccccc1F (racemic) [Compound 14]
Plant response rating, Field Bindweed (field bindweed; 16 g ai/ha): 0
Plant response rating, Field Bindweed (field bindweed; 31 g ai/ha): 0
Plant response rating, Field Bindweed (field bindweed; 62 g ai/ha): 0
Plant response rating, Field Bindweed (field bindweed; 125 g ai/ha): 0
Plant response rating, Field Bindweed (field bindweed; 250 g ai/ha): 0
Plant response rating, Foxtail, Green (foxtail, green; 16 g ai/ha): 0
Plant response rating, Foxtail, Green (foxtail, green; 31 g ai/ha): 0
Plant response rating, Foxtail, Green (foxtail, green; 62 g ai/ha): 0
Plant response rating, Foxtail, Green (foxtail, green; 125 g ai/ha): 10
Plant response rating, Foxtail, Green (foxtail, green; 250 g ai/ha): 70

O=C1NCC(c2ccc(C(F)(F)F)cc2)C1C(=O)Nc1cccc(F)c1F (racemic) [Compound 202]
Plant response rating (bluegrass; Postemergence, 31 g ai/ha): 0
Plant response rating (bluegrass; Postemergence, 62 g ai/ha): 10
Plant response rating (bluegrass; Postemergence, 125 g ai/ha): 10
Plant response rating (bluegrass; Postemergence, 250 g ai/ha): 15
Plant response rating, Bluegrass (bluegrass; Preemergence, 62 g ai/ha): 25
Plant response rating, Bluegrass (bluegrass; Preemergence, 31 g ai/ha): 10
Plant response rating (bluegrass; Preemergence, 125 g ai/ha): 65
Plant response rating (bluegrass; Preemergence, 250 g ai/ha): 70
Plant response rating (blackgrass; Postemergence, 31 g ai/ha): 0
Plant response rating (blackgrass; Postemergence, 62 g ai/ha): 5
Plant response rating (blackgrass; Postemergence, 125 g ai/ha): 10
Plant response rating (blackgrass; Postemergence, 250 g ai/ha): 40
Plant response rating, Blackgrass (blackgrass; Preemergence, 62 g ai/ha): 35
Plant response rating, Blackgrass (blackgrass; Preemergence, 31 g ai/ha): 30
Plant response rating (blackgrass; Preemergence, 125 g ai/ha): 65
Plant response rating (blackgrass; Preemergence, 250 g ai/ha): 75
Plant response rating, Field Bindweed (field bindweed; 31 g ai/ha): 60
Plant response rating, Field Bindweed (field bindweed; 62 g ai/ha): 40
Plant response rating, Field Bindweed (field bindweed; 125 g ai/ha): 50
Plant response rating, Field Bindweed (field bindweed; 250 g ai/ha): 70
Plant response rating (barley, spring; Postemergence, 31 g ai/ha): 0
Plant response rating (barley, spring; Postemergence, 62 g ai/ha): 0
Plant response rating (barley, spring; Postemergence, 125 g ai/ha): 0
Plant response rating (barley, spring; Postemergence, 250 g ai/ha): 5
Plant response rating, Barley, Spring (barley, spring; Preemergence, 62 g ai/ha): 25
Plant response rating, Barley, Spring (barley, spring; Preemergence, 31 g ai/ha): 0
Plant response rating (barley, spring; Preemergence, 125 g ai/ha): 25
Plant response rating (barley, spring; Preemergence, 250 g ai/ha): 30
Plant response rating (barley, winter; Postemergence, 31 g ai/ha): 0
Plant response rating (barley, winter; Postemergence, 62 g ai/ha): 0
Plant response rating (barley, winter; Postemergence, 125 g ai/ha): 0
Plant response rating (barley, winter; Postemergence, 250 g ai/ha): 0
Plant response rating, Barley, Winter (barley, winter; Preemergence, 62 g ai/ha): 20
Plant response rating, Barley, Winter (barley, winter; Preemergence, 31 g ai/ha): 20
Plant response rating (barley, winter; Preemergence, 125 g ai/ha): 20
Plant response rating (barley, winter; Preemergence, 250 g ai/ha): 25
Plant response rating, Foxtail, Green (foxtail, green; 31 g ai/ha): 10
Plant response rating, Foxtail, Green (foxtail, green; 62 g ai/ha): 75
Plant response rating, Foxtail, Green (foxtail, green; 125 g ai/ha): 98
Plant response rating, Foxtail, Green (foxtail, green; 250 g ai/ha): 98
Plant response rating (pigweed; 31 g ai/ha): 75
Plant response rating (pigweed; 62 g ai/ha): 75
Plant response rating (pigweed; 125 g ai/ha): 75
Plant response rating (pigweed; 250 g ai/ha): 80
Plant response rating, Pigweed (pigweed; 62 g ai/ha): 80
Plant response rating, Pigweed (pigweed; 125 g ai/ha): 90
Plant response rating, Pigweed (pigweed; 31 g ai/ha): 75
Plant response rating, Pigweed (pigweed; 250 g ai/ha): 90
Plant response rating (wheat, spring; 31 g ai/ha): 0
Plant response rating (wheat, spring; 62 g ai/ha): 0
Plant response rating (wheat, spring; 125 g ai/ha): 0
Plant response rating (wheat, spring; 250 g ai/ha): 5
Plant response rating, Wheat, Spring (wheat, spring; 62 g ai/ha): 5
Plant response rating, Wheat, Spring (wheat, spring; 125 g ai/ha): 25
Plant response rating, Wheat, Spring (wheat, spring; 31 g ai/ha): 0
Plant response rating, Wheat, Spring (wheat, spring; 250 g ai/ha): 35
Plant response rating (wheat, winter; 31 g ai/ha): 0
Plant response rating (wheat, winter; 62 g ai/ha): 0
Plant response rating (wheat, winter; 125 g ai/ha): 0
Plant response rating (wheat, winter; 250 g ai/ha): 0
Plant response rating, Wheat, Winter (wheat, winter; 62 g ai/ha): 10
Plant response rating, Wheat, Winter (wheat, winter; 125 g ai/ha): 25
Plant response rating, Wheat, Winter (wheat, winter; 31 g ai/ha): 5
Plant response rating, Wheat, Winter (wheat, winter; 250 g ai/ha): 25

O=C1NCC(c2ccc(OC(F)F)cc2)C1C(=O)Nc1cccc(F)c1F (racemic) [Compound 350]
Plant response rating, Field Bindweed (field bindweed; 31 g ai/ha): 40
Plant response rating, Field Bindweed (field bindweed; 62 g ai/ha): 60
Plant response rating, Field Bindweed (field bindweed; 125 g ai/ha): 65
Plant response rating, Field Bindweed (field bindweed; 250 g ai/ha): 60
Plant response rating, Foxtail, Green (foxtail, green; 31 g ai/ha): 20
Plant response rating, Foxtail, Green (foxtail, green; 62 g ai/ha): 35
Plant response rating, Foxtail, Green (foxtail, green; 125 g ai/ha): 80
Plant response rating, Foxtail, Green (foxtail, green; 250 g ai/ha): 85

O=C1NCC(c2ccc(F)c(F)c2)C1C(=O)Nc1cccc(F)c1F (stereo not shown) [Compound 17, N-(2,3-difluorophenyl)-4-(3,4-difluorophenyl)-2-oxo-3-pyrrolidinecarboxamide]
Plant response rating (bluegrass; Postemergence, 16 g ai/ha): 0
Plant response rating (bluegrass; Postemergence, 31 g ai/ha): 0
Plant response rating (bluegrass; Postemergence, 62 g ai/ha): 0
Plant response rating (bluegrass; Postemergence, 125 g ai/ha): 0
Plant response rating (bluegrass; Postemergence, 250 g ai/ha): 0
Plant response rating (blackgrass; Postemergence, 16 g ai/ha): 0
Plant response rating (blackgrass; Postemergence, 31 g ai/ha): 0
Plant response rating (blackgrass; Postemergence, 62 g ai/ha): 0
Plant response rating (blackgrass; Postemergence, 125 g ai/ha): 0
Plant response rating (blackgrass; Postemergence, 250 g ai/ha): 0
Plant response rating, Field Bindweed (field bindweed; 16 g ai/ha): 0
Plant response rating, Field Bindweed (field bindweed; 31 g ai/ha): 0
Plant response rating, Field Bindweed (field bindweed; 62 g ai/ha): 0
Plant response rating, Field Bindweed (field bindweed; 125 g ai/ha): 0
Plant response rating, Field Bindweed (field bindweed; 250 g ai/ha): 0
Plant response rating (barley, spring; Postemergence, 16 g ai/ha): 0
Plant response rating (barley, spring; Postemergence, 31 g ai/ha): 0
Plant response rating (barley, spring; Postemergence, 62 g ai/ha): 0
Plant response rating (barley, spring; Postemergence, 125 g ai/ha): 0
Plant response rating (barley, spring; Postemergence, 250 g ai/ha): 0
Plant response rating (barley, winter; Postemergence, 16 g ai/ha): 0
Plant response rating (barley, winter; Postemergence, 31 g ai/ha): 0
Plant response rating (barley, winter; Postemergence, 62 g ai/ha): 0
Plant response rating (barley, winter; Postemergence, 125 g ai/ha): 0
Plant response rating (barley, winter; Postemergence, 250 g ai/ha): 0
Plant response rating, Foxtail, Green (foxtail, green; 16 g ai/ha): 0
Plant response rating, Foxtail, Green (foxtail, green; 31 g ai/ha): 25
Plant response rating, Foxtail, Green (foxtail, green; 62 g ai/ha): 40
Plant response rating, Foxtail, Green (foxtail, green; 125 g ai/ha): 70
Plant response rating, Foxtail, Green (foxtail, green; 250 g ai/ha): 95
Plant response rating (pigweed; 16 g ai/ha): 0
Plant response rating (pigweed; 31 g ai/ha): 0
Plant response rating (pigweed; 62 g ai/ha): 40
Plant response rating (pigweed; 125 g ai/ha): 50
Plant response rating (pigweed; 250 g ai/ha): 50
Plant response rating (wheat, spring; 16 g ai/ha): 0
Plant response rating (wheat, spring; 31 g ai/ha): 0
Plant response rating (wheat, spring; 62 g ai/ha): 0
Plant response rating (wheat, spring; 125 g ai/ha): 0
Plant response rating (wheat, spring; 250 g ai/ha): 0
Plant response rating (wheat, winter; 16 g ai/ha): 0
Plant response rating (wheat, winter; 31 g ai/ha): 0
Plant response rating (wheat, winter; 62 g ai/ha): 0
Plant response rating (wheat, winter; 125 g ai/ha): 0
Plant response rating (wheat, winter; 250 g ai/ha): 0
